The values below come from PubChem BioAssay (NCI).

SMILES strings stand for the structures.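 Five compound concentrations were applied to cells in 96-well plates for 48 hours; endpoints were derived by simple linear interpolation of the resulting dose-response curve. At the TGI there is no net growth.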

Assay in all cases: inhibition of tumour cell growth, NCI panel, 48 h
Assay [1] concerns HT29 colon.
In assay [2] the test system is OVCAR-4 ovarian.
Assay [3] has as its system HCC-2998 colon.
The subject of assay [4] is U251 CNS.
The test system of assay [5] is NCI-H522 lung.
The test system of assay [6] is KM12 colon.
The test system of assay [7] is SR leukemia.
Assay [8] concerns NCI-H460 lung.
In assay [9] the test system is SF-295 CNS.

As for `C=C(C)[C@@H](O)[C@H](O)C[C@H](C)C1CC[C@]2(C)C1=CC[C@@H]1[C@@]3(C)CC[C@@H](OC(C)=O)C(C)(C)[C@@H]3C[C@@H](OC3OC(COC(C)=O)C(O)C(O)C3O)[C@]12C` (stereo partly drawn), the TGI was 4.04 µM in [1]; 9.17 µM in assay [2]; 1.69 µM in [3]; 5.86 µM in [4]; 3.55 µM in assay [5]; 2.95 µM in assay [6]. Further, the TGI in assay [7] turned out to be 4.2 µM; in assay [8], 6.51 µM; in [9], 4.69 µM.
With `COC1=C[C@]2(CCC(=O)O2)[C@@H]2Cc3ccccc3[C@H](O)[C@@H]2C1=O`, the TGI in assay [1] was over 100 µM; in assay [2] it was over 100 µM; in [3] it was over 100 µM; in assay [4], 79.6 µM; in assay [5], 44.4 µM; in assay [6], over 100 µM. The TGI in assay [7] is 41.4 µM; in [8] it was over 100 µM; in [9], over 100 µM.
With `CCC(=O)Nc1cccc(N=Cc2ccc(OC(=O)/C=C\c3ccccc3)cc2)c1`, the TGI in assay [1], in assay [2], in assay [3], in assay [5], in assay [6] and in [7] was over 75 µM each time. Further, the TGI in assay [8] and in [9] was over 75 µM each time.
For the compound `O=C1/C(=C/c2ccc(O)cc2)CCCC1CN1CCCCC1` (stereo not drawn), the TGI in [1] came out at 6.91 µM; in assay [2], 25.8 µM; in assay [3], 17.2 µM; in assay [4], 22.3 µM; in assay [5], 2.79 µM; in [6], 4.93 µM. The TGI in assay [7] amounted to 4.35 µM; in assay [8], 30.7 µM; in [9], 29.9 µM.
As for `Fc1ccc(-c2sc(-c3ccsc3)cc2Cc2ccsc2)cc1`, the TGI in assay [1], in [2], in assay [3], in assay [6], in assay [7] and in [9] was over 10 µM in each case.
Turning to `COC(=O)c1c(O)ccc2c1c1cc3ccccc3cc1n2Cc1cc(OC)cc(OC)c1`, the TGI in assay [1] is over 48.1 µM; in [2], over 66.9 µM; in assay [3] it was over 100 µM; in assay [4], over 100 µM; in [5] it was 0.415 µM; in assay [6] it was over 27.1 µM. The TGI in assay [7] is over 100 µM; in assay [8] it was over 100 µM; in assay [9], 7.18 µM.
Turning to `CC(C)=CC1C(C(=O)Oc2ccccc2C(C)C)C1(C)C` (stereo not drawn), the TGI in assay [1] was 36.9 µM; in [2], over 100 µM; in assay [3] it was 33.4 µM; in [4] it was 33.6 µM; in assay [5], 35.5 µM; in [6], 38.9 µM. Further, the TGI in [7] came to 61.7 µM; in assay [8], 47 µM; in assay [9] it was 33.8 µM.
For `Cc1ccc(S(=O)(=O)N2CCC[C@@H]2C(=O)O[C@@H]2CCC3CC=CC32)cc1` (stereo partly drawn), the TGI was over 100 µM in [1]; over 100 µM in assay [2]; over 100 µM in assay [3]; over 100 µM in [4]; 50.8 µM in assay [5]; over 100 µM in assay [6]. The TGI in [7] is 61 µM; in assay [8] it was over 100 µM; in [9], over 100 µM.
Regarding `CSc1cc(Cl)c(C)cc1S(=O)(=O)NC(=O)NNc1ccc(F)cc1`, the TGI in assay [1], in assay [2], in [3], in assay [4], in assay [5] and in assay [6] was over 100 µM throughout. Besides, the TGI in assay [7], in assay [8] and in [9] was over 100 µM throughout.
On to `Cn1c2ccc(F)cc2c2ccc3c(c21)C(=O)C=CC3=O`, for which the TGI in assay [1] is 49.2 µM; in assay [2] it was 11.1 µM; in assay [3] it was 67.7 µM; in assay [4] it was 23.9 µM; in [5], 4.95 µM; in assay [6] it was over 91.9 µM. Besides, the figures for the TGI in assay [7], in [8] and in assay [9] were over 20.2 µM, over 100 µM and over 100 µM, respectively.
On to `CNC(=O)N(CCC#N)CCN(C(=O)NC)c1ccccc1`, for which the TGI in assay [1], in assay [2], in [3], in assay [4], in assay [5] and in assay [6] was over 100 µM each time. Moreover, the TGI in [7], in [8] and in assay [9] was over 100 µM each time.
Turning to `COc1ccccc1NC(=S)N=Nc1c(O)[nH]c2ccccc12`, the TGI in assay [1], in assay [2], in assay [3], in assay [4], in [5] and in [6] was over 100 µM each time. Besides, the TGI in assay [7], in assay [8] and in [9] was over 100 µM each time.
In the case of `CC(=O)O[C@H]1C(=O)[C@@]2(C)[C@H]([C@H](OC(=O)c3ccccc3)[C@]3(O)C[C@H](OC(=O)[C@H](O)[C@@H](NC(=O)c4ccccc4)c4ccc5ccccc5c4)C(C)=C1C3(C)C)[C@]1(OC(C)=O)CO[C@@H]1C[C@@H]2O`, the TGI is 1.96 µM in [1]; over 41 µM in assay [2]; 0.228 µM in [3]; 1.46 µM in assay [4]; 1.85 µM in assay [7]; 5.19 µM in assay [8]. Also, the TGI in assay [9] came to 1.89 µM.
Regarding `O=C1/C(=C/c2ccc(Cl)cc2)Oc2cc(O)ccc21`, the TGI in [2] is over 100 µM; in assay [3], over 100 µM; in assay [4], 76.1 µM; in assay [5] it was 70.7 µM; in [6], over 100 µM; in assay [7], 47.1 µM. For the same compound, the TGI in assay [8] was 89.3 µM; in assay [9], over 100 µM.
With `CCOC(=O)/C=C(/C(=O)OCC)n1cc(C)c(=O)n(Cc2cnnn2COCCOC(C)=O)c1=O`, the TGI stood at 27.6 µM in assay [1]; 47 µM in assay [2]; 39.1 µM in assay [3]; 57.1 µM in assay [4]; 3.65 µM in assay [5]; 56.2 µM in assay [6]. Besides, the TGI is 39.6 µM in assay [7], over 61.5 µM in assay [8] and over 100 µM in assay [9].
